Data set [1] is described as follows: Selectivity index, ratio of IC50 for African green monkey Vero cells to IC50 for antiplasmodial activity against CQ-resistant Plasmodium falciparum W2. The format is toxicity. The conditions noted are these: read-out: Ratio IC50.
The subject of data set [2] is Plasmodium falciparum. Briefly: Antiplasmodial activity against CQ-resistant Plasmodium falciparum W2. The format is functional, organism-based.
Data set [3] deals with Vero. Briefly: Cytotoxicity against African green monkey Vero cells. The data set is classed as cell-based. The following applies: Chlorocebus sabaeus.
The test system of data set [4] is Plasmodium falciparum. Briefly: Antimalarial activity against Plasmodium falciparum RKL9 infected in human RBC assessed as reduction in parasite growth incubated for 24 hrs by giemsa staining based assay. The format is functional, organism-based. The following applies: RKL9, Erythrocyte.
Data set [5] concerns Plasmodium falciparum. The data set is described as follows: Antimalarial activity against Plasmodium falciparum 7G8. The format is functional, organism-based.
Data set [6] concerns Heme. The data set is described as follows: Binding affinity to monomeric heme in MES buffer at pH 5.6.
Data set [7] relates to Heme. Briefly: Binding affinity to monomeric heme in HEPES buffer at pH 7.4.

The values that follow come from ChEMBL document CHEMBL4819108, “A trio of quinoline-isoniazid-phthalimide with promising antiplasmodial potential: Synthesis, in-vitro evaluation and heme-polymerization inhibition studies” (Bioorg Med Chem, 2021).

A value given as a limit tells only on which side of the number the result lay.

For the molecule `O=C(NNC(=O)c1ccc2c(c1)C(=O)N(CCCCCCNc1ccnc3cc(Cl)ccc13)C2=O)c1ccncc1`, the selectivity ratio in data set [1] turned out to be 12.7. Moreover, the IC50 in data set [2] is over 10000 nM.
The corresponding values for `O=C(NCCCNc1ccnc2cc(Cl)ccc12)c1ccc2c(c1)C(=O)N(NC(=O)c1ccncc1)C2=O` are 366 and 439 nM.
The corresponding values for `O=C(NNC(=O)c1ccc2c(c1)C(=O)N(CCCCCCCCNc1ccnc3cc(Cl)ccc13)C2=O)c1ccncc1` are 2970 and 43.3 nM.
With `O=C(O)c1ccc2c(c1)C(=O)N(CCNc1ccnc3cc(Cl)ccc13)C2=O`, the IC50 in data set [3] is over 253000 nM; in data set [2], 424 nM. The selectivity ratio in data set [1] amounted to 601.
With `O=C(NNC(=O)c1ccc2c(c1)C(=O)N(CCCCNc1ccnc3cc(Cl)ccc13)C2=O)c1ccncc1`, the selectivity ratio in data set [1] came out at 627. This molecule yielded an IC50 in data set [2] of 26.3 nM.
As for `O=C(CN1C(=O)c2ccccc2C1=O)NNC(=O)c1ccncc1`, the IC50 in data set [3] was over 308000 nM; in data set [2] it was over 10000 nM. Further, the selectivity ratio in data set [1] came to 30.8.
The corresponding values for `O=C(NN1C(=O)c2ccc(N3CCN(c4ccnc5cc(Cl)ccc45)CC3)cc2C1=O)c1ccncc1` are over 438000 nM, 1300 nM and 338.
For `O=C(N/N=C/c1ccc(O)cc1)c1ccncc1`, the IC50 in data set [4] came to 42.2 nM.
`O=C(N/N=C/c1c(O)ccc2ccccc12)c1ccncc1` yielded an IC50 in data set [5] of 42.2 nM.
In the case of `O=C(O)c1ccc2c(c1)C(=O)N(CCCCCCNc1ccnc3cc(Cl)ccc13)C2=O`, in data set [1], the selectivity ratio amounted to 805. In data set [2], the midpoint of inhibition, the IC50, lay at 30.2 nM.
For the molecule `O=C(NCCCCCCNc1ccnc2cc(Cl)ccc12)c1ccc2c(c1)C(=O)N(NC(=O)c1ccncc1)C2=O`, the log K in data set [6] came out at 6.39; in data set [7], 6.66. The selectivity ratio in data set [1] was found to be 2900. In data set [2], this molecule showed an IC50 of 11.5 nM.
Turning to `O=C(NNC(=O)c1ccc(N2C(=O)c3ccccc3C2=O)cc1)c1ccncc1`, the figures for the IC50 in data set [3] and in data set [2] were over 259000 nM and over 10000 nM, respectively. Also, the selectivity ratio in data set [1] worked out at 25.8.
`COc1ccc(/C=N/NC(=O)c2ccncc2)cc1O`: the IC50 in data set [4] came out at 40.2 nM.
With `O=C(NCCCCCCCCNc1ccnc2cc(Cl)ccc12)c1ccc2c(c1)C(=O)N(NC(=O)c1ccncc1)C2=O`, the IC50 in data set [3] was over 167000 nM; in data set [2], 93.5 nM. For the same molecule, in data set [1], the selectivity ratio was determined as 1790.
In the case of `O=C(NCCNc1ccnc2cc(Cl)ccc12)c1ccc2c(c1)C(=O)N(NC(=O)c1ccncc1)C2=O`, in data set [1], the selectivity ratio amounted to 144. The same molecule yielded an IC50 in data set [2] of 445 nM.
As for `O=C(NNC(=O)c1ccc2c(c1)C(=O)N(CCCNc1ccnc3cc(Cl)ccc13)C2=O)c1ccncc1`, in data set [1], the selectivity ratio came out at 289. This molecule also yielded an IC50 in data set [2] of 412 nM.
Taken in the same sequence, the figures for `O=C(O)c1ccc2c(c1)C(=O)N(CCCNc1ccnc3cc(Cl)ccc13)C2=O` were 487 and 496 nM.
With `O=C(NNC(=O)c1ccc2c(c1)C(=O)N(CCNc1ccnc3cc(Cl)ccc13)C2=O)c1ccncc1`, the figures for the IC50 in data set [3] and in data set [2] were over 194000 nM and 1400 nM, respectively. The selectivity ratio in data set [1] amounted to 138.
Taken in the same sequence, the figures for `O=C(NN1C(=O)c2ccc(C(=O)OCCNc3ccnc4cc(Cl)ccc34)cc2C1=O)c1ccncc1` were over 194000 nM, 812 nM and 239.
The corresponding values for `O=C(NN1C(=O)c2ccc(C(=O)OCCCNc3ccnc4cc(Cl)ccc34)cc2C1=O)c1ccncc1` are over 189000 nM, 3770 nM and 50.
The corresponding values for `O=C(O)c1ccc2c(c1)C(=O)N(CCCCCCCCNc1ccnc3cc(Cl)ccc13)C2=O` are over 208000 nM, 43.2 nM and 4820.
Consider `O=C(N/N=C/C=C/c1ccccc1)c1ccncc1`, for which the IC50 in data set [4] was 66 nM.
For `O=C(O)c1ccc2c(c1)C(=O)N(CCCCNc1ccnc3cc(Cl)ccc13)C2=O`, the selectivity ratio in data set [1] turned out to be 789. Besides, in data set [2], the IC50 was determined as 50.8 nM.
The corresponding values for `O=C(NCCCCNc1ccnc2cc(Cl)ccc12)c1ccc2c(c1)C(=O)N(NC(=O)c1ccncc1)C2=O` are 58.1 and 253 nM.
